{
  "source": "patent US20070092460A1",
  "about": "“Silylated compounds as precursors for self-tanning compositions” (priority 2000, published 2007)",
  "test": "in vitro colour development test with lysine solution (Bobin et al.)",
  "protocol": "0.02 mol/l of lysine are dissolved in a phosphate buffer system in accordance with DIN 19268 (pH 7). 10 ml of this solution are treated with 0.002 mol of 1,3-bis(trimethylsiloxy)-2-propanone and the mixture is stirred at 32-35° C. for 72 h.\nAs comparison, 10 ml of the lysine solution are treated with 0.002 mol of dihydroxyacetone and stirred at 32-35° C. for 72 h.",
  "data": [
    {"smiles": "C[Si](C)(C)OCC(=O)CO[Si](C)(C)C", "note": "[1,3-bis(trimethylsiloxy)-2-propanone, 1,3-bis(Trimethylsiloxy)-2-propanone]", "values": [
      {"measurement": "brown coloration", "setting": "0.002 mol substance in 10 ml of 0.02 mol/l lysine in phosphate buffer pH 7, stirred at 32-35° C. for 72 h", "result": "comparable brown coloration"},
      {"measurement": "rate of development of the brown coloration", "setting": "compared with dihydroxyacetone, lysine in phosphate buffer pH 7, 32-35° C.", "result": "develops more slowly"}
    ]}
  ]
}
